Assay results from patent US11912994B2 (The General Hospital Corporation, priority 2015, dated 2024).

Key:
Format in all cases: cell-based, mouse
[1] = test system: Mecp2 on the Xi (Mecp2:luciferase fusion); assay: Luciferase screen in Mecp2-Luc fusion Xi cell line
Description: To determine whether an LNA targeting XIST could also be used in addition to or as an alternative to an agent described herein, experiments were performed in the following cells: immortalized monoclonal MEFs with the reporter GFP (Bird) or LUC (Bedalov) fused to Mecp2, on the Xi or Xa, immortalized human fibroblasts from a […] with Rett syndrome (Coriell) and primary mouse cortical neurons.
The LNAs were designed with the Exiqon web tool. Xist LNA for mouse ([…]; SEQ ID NO:50) targets exon 1 between rep C and rep D. The human Xist LNAs target the following sequences: A1: […]; SEQ ID NO:51; A2: […]; SEQ ID NO:52; A3: […]; SEQ ID NO:53. […] 5-azadeoxycitidine (in DMSO) was added to a final concentration of 0.5 μM (except in the titration experiment 0.1-2.5 μM).
Luciferase experiments were performed on a Microbeta2 LumiJet with a luciferase assay system (Promega). […] Afterwards, the cells were trypsinized, washed, and lysed using cell culture lysis reagent. Normalized measurements were performed in 96 well plates, during 10 seconds after a 2 second incubation period.

[2] = Drug concentration relative to IC50 / toxicity in fibroblasts; conditions: 0.3 μM
[3] = test system: GFP transgene on the inactive X (Xi-TgGFP fibroblasts); assay: Assay for the reactivation of Xi-TgGFP (GFP RT-qPCR); conditions: single drug 0.3 μM, shControl
Source text: Xi-TgGFP (68-5-11) tail-tip fibroblasts (TTF) were initially derived from a single female pup, a daughter of a cross between aM castaneus male and aM musculus female, homozygous for an X-linked GFP transgene driven by a strong, ubiquitous promoter (58). The fibroblasts were immortalized by SV40 transformation, and clonal lines were derived from individual GFP-negative cells selected by fluorescence-activated cell sorting. In our experience, occasional clones with undetectable GFP expression nevertheless have the transgene located on the active X chromosome.
A cocktail of 3 shRNA viruses were used for infections (Table 2) followed with puromycin selection using standard methodology. In all the experiments, polyclonal knock down cells were used.
RNA was isolated by Trizol twice, with an intermittent TurboDNase treatment after the first isolation for 30 min at 37° C. One μg RNA was used for each of the RT+ and RT− reactions (Superscript III, Invitrogen) followed by the SYBR green qPCR using the primers listed in Table 3, with annealing temperature of 60° C. for 45 cycles. The relative efficiency of Xi-TgGFP reactivations was calculated by comparing to U1 snRNA as the internal control.

[4] = trial 1, 20 uM LNA, 0.5 uM aza, 3 days, 1 10^5 cells/ml, 24-well

## xist: Xist LNA for mouse (TCTTGGTTACTAACAG; SEQ ID NO:50), targets exon 1 between rep C and rep D (LNA-modified, pattern not given here)
[1]; [4]
  LCPS: 0
  raw CPS: 29.8

## Nc1ncn([C@@H]2O[C@H](CO)[C@@H](O)[C@H]2O)c(=O)n1 [5′-azacytidine, 4-amino-1-beta-D-ribofuranosyl-s-triazin-2(1H)-one]
[2]
  Toxicity at the concentration used: nontoxic
[3]
  GFP reactivation: minimally reactivated GFP

## COc1cc([C@@H]2c3cc4c(cc3[C@@H](O[C@@H]3O[C@@H]5CO[C@@H](C)O[C@H]5[C@H](O)[C@H]3O)[C@H]3COC(=O)[C@H]23)OCO4)cc(OC)c1O [etoposide]
[3]
  GFP reactivation: minimally reactivated GFP

## Nc1ncn([C@H]2C[C@H](O)[C@@H](CO)O2)c(=O)n1 [AzadC, 5-aza-2′-deoxycytidine]
[1]; added to Xist LNA, 0.5 μM, reporter not specified
  Reactivation together with Xist LNA: Synergistic reactivation
